Read-outs that look alike come from different tables or passages of the source.
Columns and labels:
[1] = Pharmacokinetic Evaluation in Mice; format: in vivo; parameters: unit not given here; details: single intravenous (IV) injection at 10 mg/kg, CL57 BL/6 mice, brain homogenate
Method: Pharmacokinetic Evaluation in Mice
Several compounds disclosed herein were evaluated in a standard murine pharmacokinetic model.
Compounds were dissolved in either 5% DMSO, 40% PEG400, and 55% saline (pH=8) or […], 40% PEG400, and 55% (20% HP-β-CD in deionized water; pH=8) to yield a nominal concentration of 2 mg/mL for intravenous administration. Compounds were administered via a single intravenous (IV) injection in CL57 BL/6 mice at 10 mg/kg in DMSO/PEG400 solution. Three mice in each group were used for blood and brain collection at each time point. Blood samples (300 μL) were collected via the retro-orbital vein predose and at 5 min, 0.25, 0.50, 1, 2, 4, 6, 8, and 24 hours postdose. Blood samples were placed into tubes containing sodium heparin and centrifuged under refrigerated conditions at 8000 rpm for 6 minutes to separate plasma from the samples. The brain of each animal was collected after the final blood collection. The whole tissue was harvested, excised and rinsed by saline, dried by filter paper, and then placed into one tube per tissue per animal. All samples were stored at −20° C. until bioanalysis.
Compound concentrations in plasma and brain homogenate were determined using a high performance liquid chromatography/mass spectrometry (HPLC/MS/MS) method (Agilent 1100 series HPLC, AB Inc. API4000 triple-quadrupole with an ESI interface and Analyst 1.4 software).
Results in the form of area under the time-versus-concentration curve (AUC) are given below in Table 5.

[2] = molecular target: MLK3 (Homo sapiens (Human), UniProt Q16584); assay: Radiometric Filter Plate MLK3 Assay; format: biochemical; details: read-out: MK3 IC50
Method: Radiometric Filter Plate MLK3 Assay
After a twenty minute incubation, the reactions were washed through filter plates and read on a scintillation counter. Results are shown in Table 4 below, in which +++ indicates ≦0.1 μM, ++ indicates >0.1 μM and ≦1 μM, and + indicates >1 μM.

[3] = 200 ng (130 nM) MLK3, 1 μM inactive MKK7b, 2 μM cold ATP (Km), 33P ATP, twenty minute incubation

Chain of MLK3 (Q16584 whole entry): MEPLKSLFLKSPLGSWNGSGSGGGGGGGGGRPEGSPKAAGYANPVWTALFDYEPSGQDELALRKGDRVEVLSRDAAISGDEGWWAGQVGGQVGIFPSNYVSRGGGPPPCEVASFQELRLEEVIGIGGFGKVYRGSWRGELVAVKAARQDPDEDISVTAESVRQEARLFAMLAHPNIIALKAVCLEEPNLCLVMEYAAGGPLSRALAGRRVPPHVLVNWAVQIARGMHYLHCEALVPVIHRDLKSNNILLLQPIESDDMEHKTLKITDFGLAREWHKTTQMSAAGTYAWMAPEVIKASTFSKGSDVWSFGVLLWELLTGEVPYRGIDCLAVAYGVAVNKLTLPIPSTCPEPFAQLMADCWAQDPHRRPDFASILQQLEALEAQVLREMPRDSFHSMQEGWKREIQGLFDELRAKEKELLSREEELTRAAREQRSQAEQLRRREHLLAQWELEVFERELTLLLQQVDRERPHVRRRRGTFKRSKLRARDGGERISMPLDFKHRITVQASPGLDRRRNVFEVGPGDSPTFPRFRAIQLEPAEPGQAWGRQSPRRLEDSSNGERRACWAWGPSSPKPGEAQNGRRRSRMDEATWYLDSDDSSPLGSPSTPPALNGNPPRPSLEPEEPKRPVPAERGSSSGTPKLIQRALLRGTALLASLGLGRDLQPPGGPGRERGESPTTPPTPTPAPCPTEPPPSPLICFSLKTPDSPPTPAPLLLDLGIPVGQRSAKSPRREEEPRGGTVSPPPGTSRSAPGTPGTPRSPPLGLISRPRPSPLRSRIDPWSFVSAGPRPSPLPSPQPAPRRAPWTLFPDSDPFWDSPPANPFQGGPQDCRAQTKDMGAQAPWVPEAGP

SMILES	AUC Brain [1]	IC50 [2]	IC50 [2, 3]
COc1cc(-c2cnc3[nH]cc(-c4ccc5[nH]ccc5c4)c3c2)cc(OC)c1OC [Example 1, 3-(1H-indol-5-yl)-5-(3,4,5-trimethoxyphenyl)-1H-pyrrolo[2,3-b]pyridine]	+ (+ indicates ≧500)	0.1 to 1 µM	–
Nc1ncc(-c2cnc3[nH]cc(-c4ccc5[nH]ccc5c4)c3c2)cn1 [Example 9, 5-(3-(1H-indol-5-yl)-1H-pyrrolo[2,3-b]pyridin-5-yl)pyrimidin-2-amine]	+ (+ indicates ≧500)	–	< 0.1 µM
COc1cc(-c2cnc3[nH]cc(-c4cnc(N)nc4)c3c2)cc(OC)c1OC [Example 17, 5-(5-(3,4,5-trimethoxyphenyl)-1H-pyrrolo[2,3-b]pyridin-3-yl)pyrimidin-2-amine]	− (− indicates <500)	–	< 0.1 µM
COc1cc(-c2cnc3[nH]cc(-c4ccc(N)nc4)c3c2)cc(OC)c1OC [Example 18, 5-(5-(3,4,5-trimethoxyphenyl)-1H-pyrrolo[2,3-b]pyridin-3-yl)pyridin-2-amine]	− (− indicates <500)	–	< 0.1 µM
CC(=O)N1CCN(C(=O)c2cccc(-c3cnc4[nH]cc(-c5ccc(C(N)=O)cc5)c4c3)c2)CC1 [Example 153, 4-{5-[3-(4-acetyl-piperazine-1-carbonyl)-phenyl]-1H-pyrrolo[2,3-b]pyridin-3-yl}-benzamide]	–	0.1 to 1 µM	–
CN1CCN(Cc2cccc(-c3cnc4[nH]cc(-c5ccc(C(N)=O)cc5)c4c3)c2)CC1 [Example 156, 4-{5-[3-(4-methyl-piperazin-1-ylmethyl)-phenyl]-1H-pyrrolo[2,3-b]pyridin-3-yl}-benzamide]	–	–	< 0.1 µM
CC(=O)N1CCN(Cc2ccc(-c3cnc4[nH]cc(-c5ccc(C(N)=O)cc5)c4c3)cc2)CC1 [Example 157, 4-{5-[4-(4-acetyl-piperazin-1-ylmethyl)-phenyl]-1H-pyrrolo[2,3-b]pyridin-3-yl}-benzamide]	–	–	< 0.1 µM
CN1CCN(Cc2ccc(-c3cnc4[nH]cc(-c5ccc(C(N)=O)cc5)c4c3)cc2)CC1=O [Example 158, 4-{5-[4-(4-methyl-3-oxo-piperazin-1-ylmethyl)-phenyl]-1H-pyrrolo[2,3-b]pyridin-3-yl}-benzamide]	–	–	< 0.1 µM
COc1cc(-c2cnc3[nH]cc(-c4ccc(CNC(C)=O)cc4)c3c2)cc(OC)c1OC [Example 159, N-{4-[5-(3,4,5-Trimethoxy-phenyl)-1H-pyrrolo[2,3-b]pyridin-3-yl]-benzyl}-acetamide]	–	–	< 0.1 µM
COc1cc(-c2cnc3[nH]cc(-c4ccc(CNC(=O)Cc5ccccc5)cc4)c3c2)cc(OC)c1OC [Example 160, 2-phenyl-N-{4-[5-(3,4,5-trimethoxy-phenyl)-1H-pyrrolo[2,3-b]pyridin-3-yl]-benzyl}-acetamide]	–	0.1 to 1 µM	–
COc1cc(-c2cnc3[nH]cc(-c4ccc(CNC(=O)CCc5ccccc5)cc4)c3c2)cc(OC)c1OC [Example 161, 3-phenyl-N-{4-[5-(3,4,5-trimethoxy-phenyl)-1H-pyrrolo[2,3-b]pyridin-3-yl]-benzyl}-propionamide]	–	0.1 to 1 µM	–
CN1CCN(Cc2ccc(-c3c[nH]c4ncc(-c5ccc(C(N)=O)cc5)cc34)cc2)CC1 [Example 162, 4-{3-[4-(4-methyl-piperazin-1-ylmethyl)-phenyl]-1H-pyrrolo[2,3-b]pyridin-5-yl}-benzamide]	–	–	< 0.1 µM
CNC(=O)c1ccc(-c2c[nH]c3ncc(-c4ccc(CN5CCN(C)CC5)cc4)cc23)cc1 [Example 165, N-methyl-4-{5-[4-(4-methyl-piperazin-1-ylmethyl)-phenyl]-1H-pyrrolo[2,3-b]pyridin-3-yl}-benzamide]	–	–	< 0.1 µM

Results, then the compound that gave them:

AUC Brain [1]	IC50 [2]	IC50 [2, 3]	SMILES
− (− indicates <500)	–	< 0.1 µM	Nc1ccc(-c2cnc3[nH]cc(-c4ccc5[nH]ccc5c4)c3c2)cn1 [Example 4, 5-(3-(1H-indol-5-yl)-1H-pyrrolo[2,3-b]pyridin-5-yl)pyridin-2-amine]
+ (+ indicates ≧500)	< 0.1 µM	–	CN1CCN(Cc2ccc(-c3cnc4[nH]cc(-c5ccc6[nH]ccc6c5)c4c3)cc2)CC1 [Example 32, 3-(1H-indol-5-yl)-5-(4-((4-methylpiperazin-1-yl)methyl)phenyl)-1H-pyrrolo[2,3-b]pyridine]
–	0.1 to 1 µM	–	CN1CCN(Cc2ccc(-c3cnc4[nH]cc(-c5ccc(C(N)=O)cc5)c4c3)cc2)CC1 [Example 155, 4-{5-[4-(4-methyl-piperazin-1-ylmethyl)-phenyl]-1H-pyrrolo[2,3-b]pyridin-3-yl}-benzamide]
–	–	> 1 µM	CN1CCN(Cc2ccc(-c3c[nH]c4ncc(-c5ccc6[nH]ccc6c5)cc34)cc2)CC1 [Example 163, 5-(1H-indol-5-yl)-3-[4-(4-methyl-piperazin-1-ylmethyl)-phenyl]-1H-pyrrolo[2,3-b]pyridine]
–	–	> 1 µM	CNC(=O)c1ccc(-c2c[nH]c3ncc(-c4cc(OC)c(OC)c(OC)c4)cc23)cc1 [Example 164, N-methyl-4-[5-(3,4,5-trimethoxy-phenyl)-1H-pyrrolo[2,3-b]pyridin-3-yl]-benzamide]
–	0.1 to 1 µM	–	COc1cc(-c2cnc3[nH]cc(-c4ccc(F)cc4)c3c2)cc(OC)c1OC [Example 166, 3-(4-fluoro-phenyl)-5-(3,4,5-trimethoxy-phenyl)-1H-pyrrolo[2,3-b]pyridine]
–	0.1 to 1 µM	–	COc1cc(-c2cnc3[nH]cc(-c4ccc(-c5ncc[nH]5)cc4)c3c2)cc(OC)c1OC [Example 167, 3-[4-(1H-imidazol-2-yl)-phenyl]-5-(3,4,5-trimethoxy-phenyl)-1H-pyrrolo[2,3-b]pyridine]
